Legend:
[1] = In vitro metabolism in blood, liver microsomes, S9 fractions, hepatocytes; format: in vitro ADME, mice, rats, monkeys, and humans; details: rat samples
Description: (§1) In vitro metabolism of ALC-0315 and ALC-0159 was evaluated in blood, liver microsomes, S9 fractions, and hepatocytes from mice, rats, monkeys, and humans. In vivo metabolism was examined in rat plasma, urine, faeces, and liver samples from the PK study. […] ALC-0315 and ALC-0159 are apparently metabolised by hydrolytic metabolism of the ester and amide functionalities, respectively, and this hydrolytic metabolism is observed across the species evaluated.

[2] = Single dose IV PK, metabolism and excretion of LNP lipids in rats; format: in vivo; details: for drop of concentration in liver / drop of concentration in plasma: two weeks
Description: A single dose PK study of ALC-0315 and […] following intravenous (IV) bolus injection of a nanoparticle formulation in rats was conducted to assess the PK and metabolism of lipid excipients ALC-0315 and ALC-0159.
as §1

[3] = molecular target: human ACE2 peptidase domain (amino acids 1-615 of human ACE2 with C-terminal His-10 and Avi tags) (human) (UniProt Q9BYF1); assay: biolayer interferometry; compared with a literature value for monomeric RBD
Sequence of UniProt Q9BYF1 (Q9BYF1 18-615 limits assumed): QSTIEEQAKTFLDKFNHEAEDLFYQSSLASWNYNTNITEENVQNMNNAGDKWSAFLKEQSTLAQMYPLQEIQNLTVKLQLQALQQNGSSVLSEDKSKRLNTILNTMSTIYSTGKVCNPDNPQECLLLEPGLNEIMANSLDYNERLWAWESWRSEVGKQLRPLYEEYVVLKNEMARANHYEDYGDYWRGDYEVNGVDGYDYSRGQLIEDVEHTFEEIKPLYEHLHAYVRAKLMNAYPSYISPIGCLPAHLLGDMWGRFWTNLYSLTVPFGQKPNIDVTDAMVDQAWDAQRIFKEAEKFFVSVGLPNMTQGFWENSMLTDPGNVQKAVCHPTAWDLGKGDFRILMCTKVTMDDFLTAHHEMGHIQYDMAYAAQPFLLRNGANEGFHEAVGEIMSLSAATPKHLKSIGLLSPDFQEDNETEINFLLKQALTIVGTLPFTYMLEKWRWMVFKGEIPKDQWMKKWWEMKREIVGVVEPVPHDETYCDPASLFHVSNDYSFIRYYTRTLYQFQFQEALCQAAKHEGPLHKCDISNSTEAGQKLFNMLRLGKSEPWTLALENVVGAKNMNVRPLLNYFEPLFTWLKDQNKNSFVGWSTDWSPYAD

[4] = molecular target: human ACE2 peptidase domain (amino acids 1-615 of human ACE2 with C-terminal His-10 and Avi tags) (human) (UniProt Q9BYF1)

| Compound | rate of metabolism in vitro and in vivo [1] | eliminated unchanged in faeces [2] | apparent terminal t½ in plasma and liver ([2]; IV bolus of LNP) | drop of concentration in liver ([2]; IV bolus of LNP) | drop of concentration in plasma ([2]; IV bolus of LNP) | half-life ([2]; rat, plasma and liver, IV bolus of LNP, read-out: apparent terminal t½ in plasma and liver) | fold of the reported KD of monomeric RBD [3] | Kd [4] |
| --- | --- | --- | --- | --- | --- | --- | --- | --- |
| CCCCCCCCCCCCCCN(CCCCCCCCCCCCCC)C(=O)COCCOCCOCCOCCOCCOCCOCCOCCOCCOCCOCCOCCOCCOCCOCCOCCOCCOCCOCCOCCOCCOCCOCCOCCOCCOCCOCCOCCOCCOCCOCCOCCOCCOCCOCCOCCOCCOCCOCCOCCOCCOCCOCCOCCOCCOC [ALC-0159, 2-[(polyethylene glycol)-2000]-N,N-ditetradecylacetamide] | relatively slowly | 50% | 48 to 72 h | > 250 fold | approximately 8000 fold | – | – | – |
| CCCCCCCCC(CCCCCC)C(=O)OCCCCCCN(CCCCO)CCCCCCOC(=O)C(CCCCCC)CCCCCCCC (stereo not drawn) [ALC-0315, ((4-hydroxybutyl)azanediyl)bis(hexane-6,1-diyl)bis(2-hexyldecanoate)] | relatively slowly | little to no unchanged material | – | ~4 fold | approximately 7000 fold | 144 to 192 h | – | – |
| RBD-foldon trimer encoded by BNT162b1 (SARS-CoV-2 spike receptor-binding domain fused at its C-termi (other; other documents disagree on this pair) | – | – | – | – | – | – | 1000 fold | 5 pM |

Reference: US20230073461A1, “C[…]” (BioNTech SE, priority 2020, published 2023)
